This is an account of results in patent US10954193B2 (Vanderbilt University, priority 2013, dated 2021).

The target in the test is recombinant Mcl-1 (residues 172-327) (Homo sapiens (Human), UniProt Q07820). The test can be described thus: Bak peptide binding assay, fluorescence polarization anisotropy competition (FITC-Bak), Mcl-1.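 Also: displacement of labeled Bak peptide read by fluorescence anisotropy, 10-point threefold dilutions from 20 µM top dose in 5% DMSO, 90 min incubation at room temperature.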 The note with it: Table 3, binned ranges; FITC-Bak peptide 10 nM, Mcl-1 14 nM; read-out: Ki for inhibition of Mcl-1. (In general: Polarisation of emitted light reports the rotation of a fluorescent probe.)
recombinant Mcl-1 (residues 172-327), sequence (Q07820 172-327): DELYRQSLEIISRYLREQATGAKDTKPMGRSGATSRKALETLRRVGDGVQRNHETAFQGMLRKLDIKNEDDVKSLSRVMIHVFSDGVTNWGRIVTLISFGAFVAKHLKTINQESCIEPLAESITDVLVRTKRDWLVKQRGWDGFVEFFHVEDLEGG
The Ki is the equilibrium dissociation constant of an inhibitor or competing ligand from its target. In the case of `CCC(C(=O)O)n1cc(CCCOc2cc(C)c(Cl)c(C)c2)c2ccccc21` (racemic) [Example 52, (±)-2-(3-(3-(4-chloro-3,5-dimethylphenoxy)propyl)-1H-indol-1-yl)butanoic acid], the Ki fell in the range of 501 to 999 nM.

As for `Cc1cc(OCCCc2cn(C(C(=O)O)c3ccccc3)c3ccccc23)cc(C)c1Cl` (racemic) [Example 53, (±)-2-(3-(3-(4-chloro-3,5-dimethylphenoxy)propyl)-1H-indol-1-yl)-2-phenylacetic acid], the inhibitory constant (Ki) was 501 to 999 nM.

On to `Cc1cc(OCCCc2cn(C(C)CC(=O)O)c3ccccc23)cc(C)c1Cl` (racemic) [Example 55, (±)-3-(3-(3-(4-chloro-3,5-dimethylphenoxy)propyl)-1H-indol-1-yl)butanoic acid], for which the Ki was 501 to 999 nM.

`Cc1cc(OCCCc2cn(C(CC(=O)O)c3ccccc3)c3ccccc23)cc(C)c1Cl` (racemic) [Example 56, (±)-3-(3-(3-(4-chloro-3,5-dimethylphenoxy)propyl)-1H-indol-1-yl)-3-phenylpropanoic acid]: the Ki was in the range of 501 to 999 nM.

`Cc1cc(OCCCc2cn(C(C)C(=O)NS(C)(=O)=O)c3ccccc23)cc(C)c1Cl` (racemic) [Example 59, (±)-2-(3-(3-(4-chloro-3,5-dimethylphenoxy)propyl)-1H-indol-1-yl)-N-(methylsulfonyl)propanamide]: the Ki lay in the range of 501 to 999 nM.

For the compound `CCC(C(=O)NS(C)(=O)=O)n1cc(CCCOc2cc(C)c(Cl)c(C)c2)c2ccccc21` (racemic) [Example 60, (±)-2-(3-(3-(4-chloro-3,5-dimethylphenoxy)propyl)-1H-indol-1-yl)-N-(methylsulfonyl)butanamide], the Ki lay within 501 to 999 nM.

Consider `O=C(O)Cc1cn(CCCOc2cccc3ccccc23)c2ccccc12` [Example 1, 2-(1-(3-(naphthalen-1-yloxy)propyl)-1H-indol-3-yl)acetic acid], for which the Ki was 1000 to 9990 nM.

For `O=C(O)Cc1cn(CCCOc2ccc3ccccc3c2)c2ccccc12` [Example 2, 2-(1-(3-(naphthalen-2-yloxy)propyl)-1H-indol-3-yl)acetic acid], the Ki was in the range of 10000 to 50000 nM.

Turning to `Cc1cc(OCCCn2cc(CC(=O)NS(C)(=O)=O)c3ccccc32)cc(C)c1Cl` [Example 4, 2-(1-(3-(4-chloro-3,5-dimethylphenoxy)propyl)-1H-indol-3-yl)-N-(methylsulfonyl)acetamide], the Ki lay within 1000 to 9990 nM.

For `Cc1cc(OCCCc2cn(CC(=O)O)c3ccccc23)cc(C)c1Cl` [Example 5, 2-(3-(3-(4-chloro-3,5-dimethylphenoxy)propyl)-1H-indol-1-yl)acetic acid], the Ki is 501 to 999 nM.

In the case of `O=C(O)Cn1cc(CCCOc2cccc3ccccc23)c2ccccc21` [Example 6, 2-(3-(3-(naphthalen-1-yloxy)propyl)-1H-indol-1-yl)acetic acid], the Ki was 1000 to 9990 nM.

With `O=C(O)Cn1cc(CCCOc2cccc3ccccc23)c2ccc(Cl)cc21` [Example 8, 2-(6-chloro-3-(3-(naphthalen-1-yloxy)propyl)-1H-indol-1-yl)acetic acid], the Ki lay within 1000 to 9990 nM.

With `Cc1cc(OCCCc2cn(CC(=O)O)c3cccc(Cl)c23)cc(C)c1Cl` [Example 9, 2-(4-chloro-3-(3-(4-chloro-3,5-dimethylphenoxy)propyl)-1H-indol-1-yl)acetic acid], the inhibition constant (Ki) was 501 to 999 nM.

With `O=C(O)Cn1cc(CCCOc2cccc3ccccc23)c2c(Cl)cccc21` [Example 10, 2-(4-chloro-3-(3-(naphthalen-1-yloxy)propyl)-1H-indol-1-yl)acetic acid], the Ki was 1000 to 9990 nM.

For the compound `O=C(O)CCn1cc(CCCOc2cccc3ccccc23)c2ccccc21` [Example 11, 3-(3-(3-(naphthalen-1-yloxy)propyl)-1H-indol-1-yl)propanoic acid], the Ki lay in the range of 1000 to 9990 nM.

On to `Cc1cc(OCCCc2cn(CCC(=O)O)c3cc(Cl)ccc23)cc(C)c1Cl` [Example 13, 3-(6-chloro-3-(3-(4-chloro-3,5-dimethylphenoxy)propyl)-1H-indol-1-yl)propanoic acid], for which the inhibitory constant (Ki) is 101 to 299 nM.

For the compound `O=C(O)CCn1cc(CCCOc2cccc3ccccc23)c2c(Cl)cccc21` [Example 16, 3-(4-chloro-3-(3-(naphthalen-1-yloxy)propyl)-1H-indol-1-yl)propanoic acid], the Ki fell in the range of 1000 to 9990 nM.

`Cc1cc(OCC(C)Cc2cn(CCC(=O)O)c3ccccc23)cc(C)c1Cl` (stereo not shown) [Example 17, 3-(3-(3-(4-chloro-3,5-dimethylphenoxy)-2-methylpropyl)-1H-indol-1-yl)propanoic acid]: the inhibition constant (Ki) lay in the range of 1000 to 9990 nM.

Consider `Cc1cc(OCCCc2cn(CCC(=O)NS(C)(=O)=O)c3ccccc23)cc(C)c1Cl` [Example 18, 3-(3-(3-(4-chloro-3,5-dimethylphenoxy)propyl)-1H-indol-1-yl)-N-(methylsulfonyl)propanamide], for which the Ki fell in the range of 1000 to 9990 nM.

With `CS(=O)(=O)NC(=O)CCn1cc(CCCOc2cccc3ccccc23)c2ccccc21` [Example 19, 3-(3-(3-(naphthalen-1-yloxy)propyl)-1H-indol-1-yl)-N-(methylsulfonyl)propanamide], the Ki fell in the range of 1000 to 9990 nM.

In the case of `CS(=O)(=O)NC(=O)CCn1cc(CCCOc2cccc3ccccc23)c2ccc(Cl)cc21` [Example 21, 3-(6-chloro-3-(3-(naphthalen-1-yloxy)propyl)-1H-indol-1-yl)-N-(methylsulfonyl)propanamide], the Ki fell in the range of 501 to 999 nM.

With `CS(=O)(=O)NC(=O)CCn1cc(CCCOc2cccc3ccccc23)c2c(Cl)cccc21` [Example 23, 3-(4-chloro-3-(3-(naphthalen-1-yloxy)propyl)-1H-indol-1-yl)-N-(methylsulfonyl)propanamide], the Ki was in the range of 1000 to 9990 nM.

For `CS(=O)(=O)NC(=O)Cn1cc(CCCOc2cccc3ccccc23)c2ccccc21` [Example 24, N-(methylsulfonyl)-2-(3-(3-(naphthalen-1-yloxy)propyl)-1H-indol-1-yl)acetamide], the Ki fell in the range of 1000 to 9990 nM.

For `CS(=O)(=O)NC(=O)Cn1cc(CCCOc2cccc3ccccc23)c2c(Cl)cccc21` [Example 28, 2-(4-chloro-3-(3-(naphthalen-1-yloxy)propyl)-1H-indol-1-yl)-N-(methylsulfonyl)acetamide], the inhibition constant (Ki) was 1000 to 9990 nM.

As to `Cc1cc(OCCCc2cn(CCC(=O)O)c3c(Br)cccc23)cc(C)c1Cl` [Example 29, 3-(7-bromo-3-(3-(4-chloro-3,5-dimethylphenoxy)propyl)-1H-indol-1-yl)propanoic acid], the inhibition constant (Ki) was 301 to 500 nM.

As for `Cc1cc(OCCCc2cn(CCC(=O)O)c3c(-c4c(COc5ccccc5)nn(C)c4C)cccc23)cc(C)c1Cl` [Example 30, 3-(3-(3-(4-chloro-3,5-dimethylphenoxy)propyl)-7-(1,5-dimethyl-3-(phenoxymethyl)-1H-pyrazol-4-yl)-1H-indol-1-yl)propanoic acid], the Ki fell in the range of 101 to 299 nM.

For the compound `Cc1cc(OCCCc2cn(CCC(=O)O)c3c(-c4ccccc4)cccc23)cc(C)c1Cl` [Example 31, 3-(3-(3-(4-chloro-3,5-dimethylphenoxy)propyl)-7-phenyl-1H-indol-1-yl)propanoic acid], the Ki lay in the range of 301 to 500 nM.

In the case of `Cc1cc(OCCCc2cn(CCC(=O)O)c3c(-c4cccnc4)cccc23)cc(C)c1Cl` [Example 33, 3-(3-(3-(4-chloro-3,5-dimethylphenoxy)propyl)-7-(pyridin-3-yl)-1H-indol-1-yl)propanoic acid], the Ki was in the range of 501 to 999 nM.
